Test results published in ChEMBL document CHEMBL3046161, “Synthesis of potential antitubercular and antimicrobial s-triazine-based scaffolds via Suzuki cross-coupling reaction” (2013).
≈ marks a conversion by molar mass, not a printed value.

Key:
Format in all cases: functional
Salmonella typhi [1] = experiment: Antibacterial activity against Salmonella enterica subsp. enterica serovar Typhi MTCC 733 assessed as growth inhibition at 3.12 to 50 ug/mL after 24 hr by agar disk diffusion method
Staphylococcus aureus [2] = experiment: Antibacterial activity against Staphylococcus aureus MTCC 96 assessed as growth inhibition after 24 hr by agar streak dilution method; conditions: MTCC 96, 24 h
Candida albicans [3] = experiment: Antifungal activity against Candida albicans MTCC 183 assessed as growth inhibition after 48 hr by agar streak dilution method; conditions: MTCC 183, 48 h
[4] = system: Mycobacterium tuberculosis; experiment: Antimycobacterial activity against Mycobacterium tuberculosis H37Rv assessed as growth inhibition at MIC after 12 to 28 days by Lowenstein and Jensen agar dilution method
Klebsiella pneumoniae [5] = experiment: Antibacterial activity against Klebsiella pneumoniae MTCC 109 assessed as growth inhibition at 3.12 to 50 ug/mL after 24 hr by agar disk diffusion method
Escherichia coli [6] = experiment: Antibacterial activity against Escherichia coli MTCC 739 assessed as growth inhibition after 24 hr by agar streak dilution method; conditions: MTCC 739, 24 h
Salmonella typhi [7] = experiment: Antibacterial activity against Salmonella enterica subsp. enterica serovar Typhi MTCC 733 assessed as growth inhibition after 24 hr by agar streak dilution method; conditions: MTCC 733, 24 h
Pseudomonas aeruginosa [8] = experiment: Antibacterial activity against Pseudomonas aeruginosa MTCC 741 assessed as growth inhibition after 24 hr by agar streak dilution method; conditions: MTCC 741, 24 h
Pseudomonas aeruginosa [9] = experiment: Antibacterial activity against Pseudomonas aeruginosa MTCC 741 assessed as growth inhibition at 3.12 to 50 ug/mL after 24 hr by agar disk diffusion method
Escherichia coli [10] = experiment: Antibacterial activity against Escherichia coli MTCC 739 assessed as growth inhibition at 3.12 to 50 ug/mL after 24 hr by agar disk diffusion method
Aspergillus niger [11] = experiment: Antifungal activity against Aspergillus niger MTCC 282 assessed as growth inhibition after 48 hr by agar streak dilution method; conditions: MTCC 282, 48 h
Shigella flexneri [12] = experiment: Antibacterial activity against Shigella flexneri MTCC 1457 assessed as growth inhibition after 24 hr by agar streak dilution method; conditions: MTCC 1457, 24 h
Bacillus cereus [13] = experiment: Antibacterial activity against Bacillus cereus MTCC 430 assessed as growth inhibition after 24 hr by agar streak dilution method; conditions: MTCC 430, 24 h
Staphylococcus aureus [14] = experiment: Antibacterial activity against Staphylococcus aureus MTCC 96 assessed as growth inhibition at 3.12 to 50 ug/mL after 24 hr by agar disk diffusion method
Candida albicans [15] = experiment: Antifungal activity against Candida albicans MTCC 183 assessed as growth inhibition at 3.12 to 50 ug/mL after 24 hr by agar disk diffusion method
Bacillus cereus [16] = experiment: Antibacterial activity against Bacillus cereus MTCC 430 assessed as growth inhibition at 3.12 to 50 ug/mL after 24 hr by agar disk diffusion method
Aspergillus niger [17] = experiment: Antifungal activity against Aspergillus niger MTCC 282 assessed as growth inhibition at 3.12 to 50 ug/mL after 24 hr by agar disk diffusion method
Proteus vulgaris [18] = experiment: Antibacterial activity against Proteus vulgaris MTCC 1771 assessed as growth inhibition after 24 hr by agar streak dilution method; conditions: MTCC 1771, 24 h
Aspergillus fumigatus [19] = experiment: Antifungal activity against Aspergillus fumigatus MTCC 343 assessed as growth inhibition after 48 hr by agar streak dilution method; conditions: MTCC 343, 48 h
Klebsiella pneumoniae [20] = experiment: Antibacterial activity against Klebsiella pneumoniae MTCC 109 assessed as growth inhibition after 24 hr by agar streak dilution method; conditions: MTCC 109, 24 h
Aspergillus clavatus [21] = experiment: Antifungal activity against Aspergillus clavatus MTCC 1323 assessed as growth inhibition after 48 hr by agar streak dilution method; conditions: MTCC 1323, 48 h
Proteus vulgaris [22] = experiment: Antibacterial activity against Proteus vulgaris MTCC 1771 assessed as growth inhibition at 3.12 to 50 ug/mL after 24 hr by agar disk diffusion method
Aspergillus clavatus [23] = experiment: Antifungal activity against Aspergillus clavatus MTCC 1323 assessed as growth inhibition at 3.12 to 50 ug/mL after 24 hr by agar disk diffusion method
[24] = system: Mycobacterium tuberculosis; experiment: Antimycobacterial activity against Mycobacterium tuberculosis H37Rv assessed as growth inhibition after 12 to 28 days by Lowenstein and Jensen agar dilution method
Shigella flexneri [25] = experiment: Antibacterial activity against Shigella flexneri MTCC 1457 assessed as growth inhibition at 3.12 to 50 ug/mL after 24 hr by agar disk diffusion method
[26] = system: Mycobacterium tuberculosis; experiment: Antimycobacterial activity against Mycobacterium tuberculosis H37Rv assessed as growth inhibition measured within 10 days by BACTEC MGIT method; conditions: 240 h
Aspergillus fumigatus [27] = experiment: Antifungal activity against Aspergillus fumigatus MTCC 343 assessed as growth inhibition at 3.12 to 50 ug/mL after 24 hr by agar disk diffusion method

SMILES	inhibition zone (IZ) (Salmonella typhi [1]) [mm]	MIC (Staphylococcus aureus [2]) [µg/mL]	MIC (Candida albicans [3]) [µg/mL]	growth inhibition (GI) [4] [%]	inhibition zone (IZ) (Klebsiella pneumoniae [5]) [mm]	MIC (Escherichia coli [6]) [µg/mL]	MIC (Salmonella typhi [7]) [µg/mL]	MIC (Pseudomonas aeruginosa [8]) [µg/mL]	inhibition zone (IZ) (Pseudomonas aeruginosa [9]) [mm]	inhibition zone (IZ) (Escherichia coli [10]) [mm]	MIC (Aspergillus niger [11]) [µg/mL]	MIC (Shigella flexneri [12]) [µg/mL]	MIC (Bacillus cereus [13]) [µg/mL]	inhibition zone (IZ) (Staphylococcus aureus [14]) [mm]	inhibition zone (IZ) (Candida albicans [15]) [mm]	inhibition zone (IZ) (Bacillus cereus [16]) [mm]	inhibition zone (IZ) (Aspergillus niger [17]) [mm]	MIC (Proteus vulgaris [18]) [µg/mL]	MIC (Aspergillus fumigatus [19]) [µg/mL]	MIC (Klebsiella pneumoniae [20]) [µg/mL]	also measured
CC1CC(C)CN(c2nc(-c3ccc(NCC(=O)Nc4ccc(I)cc4)cc3)nc(N3CC(C)CC(C)C3)n2)C1 (stereo not drawn)	17	50 (≈ 76.5 µM)	> 50	95	23	50 (≈ 76.5 µM)	50 (≈ 76.5 µM)	25 (≈ 38.2 µM)	24	<10	50 (≈ 76.5 µM)	50 (≈ 76.5 µM)	50 (≈ 76.5 µM)	17	<10	16	<10	25 (≈ 38.2 µM)	50 (≈ 76.5 µM)	50 (≈ 76.5 µM)	MIC (Aspergillus clavatus [21]): > 50 µg/mL; inhibition zone (IZ) (Proteus vulgaris [22]): 23 mm; inhibition zone (IZ) (Aspergillus clavatus [23]): <10 mm; MIC [24]: 250 µg/mL (≈ 382 µM); inhibition zone (IZ) (Shigella flexneri [25]): 20 mm; MIC [26]: > 6.25 µg/mL; inhibition zone (IZ) (Aspergillus fumigatus [27]): 16 mm
CC1CC(C)CN(c2nc(-c3ccc(NCC(=O)Nc4ccc([N+](=O)[O-])cc4)cc3)nc(N3CC(C)CC(C)C3)n2)C1 (stereo not drawn)	15	12.5 (≈ 21.8 µM)	50 (≈ 87.3 µM)	94	12	50 (≈ 87.3 µM)	50 (≈ 87.3 µM)	50 (≈ 87.3 µM)	20	13	50 (≈ 87.3 µM)	50 (≈ 87.3 µM)	50 (≈ 87.3 µM)	20	13	16	18	50 (≈ 87.3 µM)	50 (≈ 87.3 µM)	50 (≈ 87.3 µM)	MIC (Aspergillus clavatus [21]): 50 µg/mL (≈ 87.3 µM); inhibition zone (IZ) (Proteus vulgaris [22]): 13 mm; inhibition zone (IZ) (Aspergillus clavatus [23]): 24 mm; MIC [24]: 100 µg/mL (≈ 175 µM); inhibition zone (IZ) (Shigella flexneri [25]): 17 mm; MIC [26]: > 6.25 µg/mL; inhibition zone (IZ) (Aspergillus fumigatus [27]): 18 mm
CC1CC(C)CN(c2nc(-c3ccc(NCC(=O)Nc4ccc(C#N)cc4)cc3)nc(N3CC(C)CC(C)C3)n2)C1 (stereo not drawn)	20	12.5 (≈ 22.6 µM)	> 50	96	28	25 (≈ 45.2 µM)	50 (≈ 90.5 µM)	50 (≈ 90.5 µM)	21	20	50 (≈ 90.5 µM)	50 (≈ 90.5 µM)	50 (≈ 90.5 µM)	19	<10	19	<10	50 (≈ 90.5 µM)	50 (≈ 90.5 µM)	12.5 (≈ 22.6 µM)	MIC (Aspergillus clavatus [21]): > 50 µg/mL; inhibition zone (IZ) (Proteus vulgaris [22]): 19 mm; inhibition zone (IZ) (Aspergillus clavatus [23]): <10 mm; MIC [24]: 62.5 µg/mL (≈ 113 µM); inhibition zone (IZ) (Shigella flexneri [25]): 15 mm; MIC [26]: > 6.25 µg/mL; inhibition zone (IZ) (Aspergillus fumigatus [27]): 11 mm
Cc1ccc(NC(=O)CNc2ccc(-c3nc(N4CC(C)CC(C)C4)nc(N4CC(C)CC(C)C4)n3)cc2)cc1 (stereo not drawn)	18	50 (≈ 92.3 µM)	50 (≈ 92.3 µM)	95	<10	50 (≈ 92.3 µM)	50 (≈ 92.3 µM)	50 (≈ 92.3 µM)	17	13	50 (≈ 92.3 µM)	50 (≈ 92.3 µM)	50 (≈ 92.3 µM)	<10	11	14	<10	50 (≈ 92.3 µM)	> 50	50 (≈ 92.3 µM)	MIC (Aspergillus clavatus [21]): > 50 µg/mL; inhibition zone (IZ) (Proteus vulgaris [22]): 16 mm; inhibition zone (IZ) (Aspergillus clavatus [23]): <10 mm; MIC [24]: 250 µg/mL (≈ 461 µM); inhibition zone (IZ) (Shigella flexneri [25]): 11 mm; MIC [26]: > 6.25 µg/mL; inhibition zone (IZ) (Aspergillus fumigatus [27]): <10 mm
